In PubChem BioAssay AID2305 (GlaxoSmithKline (GSK), 2010):

Each compound was assayed on P. falciparum 3D7 growth, pLDH absorbance (assay: P. falciparum 3D7 growth inhibition, dose response, strain 3D7 (AID 2305)).

SMILES | IC50
NS(=O)(=O)c1ccc(CNc2ccc3ncc(-c4ccc(Cl)cc4)n3n2)cc1 | 280 nM
O=C(CSc1nccn1Cc1ccco1)Nc1cc(C(F)(F)F)ccc1Cl | 820 nM
CCCN(CC1CC1)c1ncc(-c2cccc(CNCc3ccccc3O)c2)cn1 | 700 nM
c1ccc(COc2ccc(Nc3ncnc4cnc(-c5ccc(CNc6cccnc6)o5)cc34)cc2)cc1 | 860 nM
CN(C)c1ccc(OCCCCCCOc2ccccc2)cc1 | 500 nM
Cc1cc(-c2ccc(CNCCc3cccs3)cc2)ccc1S(=O)(=O)NCc1ccccc1 | 1140 nM
Cc1cc2[nH]c(-c3ccc(C(=O)NCCCN4CCN(c5cccc(Cl)c5)CC4)cc3F)nc2cc1Cl | 480 nM
COc1ccc(NC(=O)c2ccc(-c3nc(-c4cccc(C(F)(F)F)c4)cs3)cc2)cc1N1CCN(C)CC1 | 820 nM
Oc1ccc2[nH]c(-c3cccs3)nc2c1CN1CCC(O)(c2ccccc2)CC1 | 780 nM
Cc1ccc(C(=O)Nc2ccc(F)c(F)c2F)cc1S(=O)(=O)N1CCCCC1 | 760 nM
Cc1cccc(Nc2c(-c3cc(Br)ccc3O)nc3ncccn23)c1 | 210 nM
Cc1ccccc1C1CCN(C2CCC(NC(=O)c3ccc(-c4ccccc4)s3)CC2)CC1 (stereo not given) | 660 nM
c1ccc2[nH]c(-c3ccc(-c4ccc(CN5CCN(c6ccncc6)CC5)cc4)cc3)nc2c1 | 160 nM
CCn1c(-c2nonc2N)nc2c(-c3cccc(Cl)c3)ncc(OCCCNCc3cnc(C)nc3N)c21 | 1010 nM
CCN(CCCN1CCCCC1)c1cc(C)nc(Nc2ccc(C)c(F)c2)n1 | 270 nM
O=C(Nc1cccc(-c2nn3ccccc3c2-c2ccnc(Nc3ccccc3)n2)c1)c1cc(F)ccc1F | 950 nM
O=c1cc(N2CCCNCC2)c(Cl)nn1Cc1ccc(NS(=O)(=O)c2ccc(Oc3ccccc3)cc2)cc1 | 800 nM
CC1(C)N=C(N)N=C(N)N1c1ccc(I)cc1 | 40 nM
CO/C(=C\C=C\c1cc2cc(Cl)c(Cl)cc2[nH]1)C(=O)NCCCN1CCN(c2cccc(OCC(=O)Nc3ccccc3)c2)CC1 | 500 nM
CC(=O)Nc1cccc(CNc2cc(C)nc(Nc3ccc(C)cc3)n2)c1 | 1140 nM
CCCN(CCC)C(=S)N=Nc1c(O)[nH]c2ccccc12 | 810 nM
CC(=O)N[C@H](C(=O)Nc1ccc(-c2cccc(-c3nc4c(C)cccc4[nH]3)c2)cc1)C(C)C | 1090 nM
NC1=NC2(CCCCC2)N(OCCCCCCCCNc2nc(N)nc(N)n2)C(N)=N1 | 60 nM
Cc1noc(C)c1-c1cccc(CNCc2ccc(-c3ccc(-c4nc5c(C)cccc5[nH]4)cc3)cc2)c1 | 240 nM
Nc1nc(N)c2c(ccc3c2ccn3C2CCCCC2)n1 | 120 nM

SMILES | IC50
COC(=O)CCCCOc1cc(Cc2cnc(N)nc2N)cc(OC)c1OC | 170 nM
COc1ccc2c(NN=Cc3cccnc3)cc(C)nc2c1 | 990 nM
CN(C)Cc1cccc(CNC(=O)c2sccc2OCc2ccc(Cl)cc2)c1 | 830 nM
NC(N)=Nc1nc(-c2cccc(NC(=O)NCCc3c[nH]c4ccc(OCc5ccccc5)cc34)c2)cs1 | 810 nM
COc1ccc2nccc([C@@H](O)CN3CCC(NCc4cc5ccccn5n4)CC3)c2c1 | 1570 nM
Cc1nc2ccc3ccc(CNc4ccc5c(c4)CN([C@@H](CCC(=O)O)C(=O)O)C5=O)cc3c2c(=O)[nH]1 | 160 nM
CN1CCN(c2cc(NC(=O)c3ccc(-c4ccc(C#N)cc4)cc3)ccc2Cl)CC1 | 460 nM
COc1ccc2nc3cc(Cl)ccc3c(NCCCCCCNc3c4ccc(Cl)cc4nc4ccc(OC)cc34)c2c1 | 660 nM
CCc1ccc(CN2CCC(C(=O)Nc3ccc(-c4nc5ccccc5[nH]4)cc3)CC2)o1 | 610 nM
C=CCOC(=O)N1CCC(CNCc2cccc(-c3cccc(-c4nc5ccc(F)cc5[nH]4)c3)c2)C1 (stereo not given) | 210 nM
CC1CCC2(CC1)N=C(N)N=C(N)N2OCc1ccc(Br)c2ccccc12 (stereo not given) | 220 nM
CCOc1cc2ncnc(Nc3ccc(OCc4c(F)cccc4F)c(OC)c3)c2cc1OCC | 820 nM
O=C(/C=C/c1ccc(Cl)c(Cl)c1)NCCCCCCN1CCN(C(=O)Nc2ccc(C(F)(F)F)cc2)CC1 | 400 nM
CO/C(=C\C=C\c1cc2cc(Cl)c(Cl)cc2[nH]1)C(=O)NCCCN1CCN(c2cccc(O)c2)CC1 | 580 nM
Clc1ccc(Sc2cncnc2N2CCOCC2)cc1 | 40 nM
CCN1CC=C(c2c[nH]c3ccccc23)CC1 | 1030 nM
Nc1nc(N)c2c(ccn2Cc2cc3c(cc2Cl)OCO3)n1 | 760 nM
Fc1ccc(-c2cc3ncnc(N4CCN(CCN5CCCC5)CC4)c3s2)cc1 | 740 nM
COc1ccc(CCNCCCCCNCCCc2ccc(Cl)cc2)cc1OC | 810 nM
COc1ccc(CN2CCCC(OC(c3ccc(F)cc3)c3ccc(F)cc3)C2)c(O)c1 (stereo not given) | 610 nM
CC1CN(c2cc(=O)n(Cc3ccc(NC(=O)Nc4ccc(-c5ccccc5)cc4)cc3)cn2)CC(C)N1 (stereo not given) | 970 nM
COc1ccc(C=NNc2cc(C)nc3ccccc23)c2ccccc12 | 750 nM
CN1CCN(Cc2cccc(-c3ccc4c(Nc5ccc(Oc6cccnc6)cc5)ccnc4c3)c2)CC1 | 190 nM
Cc1ccc(O)c(-c2cc(C(=O)Nc3ccc(S(=O)(=O)N4CCCC(C)C4)cc3)[nH]n2)c1 (stereo not given) | 710 nM
COc1ccc2nccc([C@@H](O)CN3CCC(NCc4nc5c(OCc6ccccc6)cccc5[nH]4)CC3)c2c1 | 180 nM
